Patent US10442791B2, “DNA-PK inhibitors” (Vertex Pharmaceuticals Incorporated, priority 2012, dated 2019)

How the values were obtained:
[1] = test system: DNA-PK null SCID mouse cell line; experiment: Cell viability following irradiation (CellTiter-Glo), SCID; format: cell-based; settings: for EC50 IR: SCID (SCID Tumor, DNA-PK null), viability at 6 days
Protocol: (§1) To evaluate the radiosensitizing effects of compounds of the invention in combination with ionizing radiation (IR), a broad panel of cell lines across multiple tumor types and genetic backgrounds were tested. Cells were incubated with DMSO or compound 578 for 30 minutes and then exposed to various doses of radiation (0, 0.5, 1, 2, 4, 6, 8, and 16 Gy). Cell viability was assessed at 6 days using CellTiter-Glo® (Promega, Inc).

SW900 = experiment: Cell viability following irradiation (CellTiter-Glo), SW900; format: cell-based; settings: SW900 (Lung Cancer), viability at 6 days
Protocol: as §1

SK-MEL-5 = experiment: Cell viability following irradiation (CellTiter-Glo), SK-MEL-5; format: cell-based; settings: SK-MEL-5 (Melanoma), viability at 6 days
Protocol: as §1

HT1080 = experiment: Cell viability following irradiation (CellTiter-Glo), HT1080; format: cell-based; settings: HT1080 (Fibrosarcoma), viability at 6 days
Protocol: as §1

OE19 = experiment: Cell viability following irradiation (CellTiter-Glo), OE19; format: cell-based; settings: OE19 (Gastric-Esophageal Cancer), viability at 6 days
Protocol: as §1

Huh7 = experiment: Cell viability following irradiation (CellTiter-Glo), Huh7; format: cell-based; settings: Huh7 (Hepatocellular Carcinoma), viability at 6 days
Protocol: as §1

DLD-1 = experiment: Cell viability following irradiation (CellTiter-Glo), DLD-1; format: cell-based; settings: DLD-1 (Colorectal Cancer), viability at 6 days
Protocol: as §1

[2] = test system: OD26749 NSCLC subcutaneous xenograft; experiment: In vivo efficacy, primary OD26749 NSCLC subcutaneous xenograft model with whole body IR; set-up: species or system Nude mice; settings: Days 19 and 26, Day 30 post implantation
Protocol: The efficacy of compound 578 in vivo was evaluated in the primary OD26749 NSCLC subcutaneous xenograft model. This primary NSCLC tumor was obtained from a patient with a poorly differentiated adenocarcinoma and was serially passaged in SCID mice prior to this study. Nude mice were surgically implanted with 150-mg fragments of OD26749 tumor at passage 3 (P3). Whole body ionizing radiation (IR, 2 Gy/treatment) was administered using a dual Cesium 137 source and initiated when tumors reached approximately 350 mm^3. Tumor volumes were measured twice a week during the course of the study. Anti-tumor efficacy is expressed as % T/C (tumor/control) while regression is expressed as % T/Ti, the reduction in tumor volume compared to the starting tumor volume.
Compound 578 [in 16% Captisol®+HPMC/PVP] was administered orally (b.i.d. at 0 and 4 hours) at 25, 50, 100 mg/kg and (q.d.) 200 mg/kg on Day 19 post implantation. A single 2-Gy dose of whole body IR was given 15 minutes after compound administration. Control animals were given vehicle orally b.i.d. (0 and 4 hours). On Day 26 post implantation, the same regimens were repeated.

H460 = experiment: Cell viability following irradiation (CellTiter-Glo), H460; format: cell-based; settings: H460 (Lung Cancer), viability at 6 days
Protocol: as §1

A172 = experiment: Cell viability following irradiation (CellTiter-Glo), A172; format: cell-based; settings: A172 (Glioblastoma), viability at 6 days
Protocol: as §1

LS411N = experiment: Cell viability following irradiation (CellTiter-Glo), LS411N; format: cell-based; settings: LS411N (Colorectal Cancer), viability at 6 days
Protocol: as §1

SNU449 = experiment: Cell viability following irradiation (CellTiter-Glo), SNU449; format: cell-based; settings: SNU449 (Hepatocellular Carcinoma), viability at 6 days
Protocol: as §1

DU4475 = experiment: Cell viability following irradiation (CellTiter-Glo), DU4475; format: cell-based; settings: DU4475 (Breast Cancer), viability at 6 days
Protocol: as §1

glioblastoma cell lines = experiment: Cell viability following irradiation, glioblastoma cell lines; format: cell-based; settings: generally less sensitive to radiation alone
Protocol: as §1

U87MG = experiment: Cell viability following irradiation (CellTiter-Glo), U87MG; format: cell-based; settings: U87MG (Glioblastoma), viability at 6 days
Protocol: as §1

PATU8889T = experiment: Cell viability following irradiation (CellTiter-Glo), PATU8889T; format: cell-based; settings: PATU8889T (Pancreatic cancer), viability at 6 days
Protocol: as §1

DBTRG-05MG = experiment: Cell viability following irradiation (CellTiter-Glo), DBTRG-05MG; format: cell-based; settings: DBTRG-05MG (Glioblastoma), viability at 6 days
Protocol: as §1

H838 = experiment: Cell viability following irradiation (CellTiter-Glo), H838; format: cell-based; settings: H838 (Lung Cancer), viability at 6 days
Protocol: as §1

A549 = experiment: Cell viability following irradiation (CellTiter-Glo), A549; format: cell-based; settings: A549 (Lung Cancer), viability at 6 days
Protocol: as §1

Miapaca2 = experiment: Cell viability following irradiation (CellTiter-Glo), Miapaca2; format: cell-based; settings: Miapaca2 (Pancreatic cancer), viability at 6 days
Protocol: as §1

SMCC7721 = experiment: Cell viability following irradiation (CellTiter-Glo), SMCC7721; format: cell-based; settings: SMCC7721 (Hepatocellular Carcinoma), viability at 6 days
Protocol: as §1

H2009 = experiment: Cell viability following irradiation (CellTiter-Glo), H2009; format: cell-based; settings: H2009 (Lung Cancer), viability at 6 days
Protocol: as §1

Question: What does the source list for `CNC(=O)c1ccnc2c([C@H](C)CNc3cc(-c4cnc(C)nc4)ncn3)cccc12` [Compound 578, (S)—N-methyl-8-(1-((2′-methyl-[4,5′-bipyrimidin]-6-yl)amino)propan-2-yl)quinoline-4-carboxamide]?
Answer: EC50 IR ([1]; compound 578 0.7 μM + IR): 2.8 Gy; EC50 IR ([1]; compound 578 2.1 μM + IR): 3.1 Gy; effect on cell viability ([1]; as a single agent or in combination with radiation, DNA-PK null SCID mouse cell line): minimal effect on cell viability; EC50 IR (SW900; compound 578 0.7 μM + IR): 4.2 Gy; EC50 IR (SW900; compound 578 2.1 μM + IR): 4.3 Gy; EC50 IR (SK-MEL-5; compound 578 0.7 μM + IR): 2.7 Gy; EC50 IR (SK-MEL-5; compound 578 2.1 μM + IR): 2.3 Gy; EC50 IR (HT1080; compound 578 0.7 μM + IR): 1.9 Gy; EC50 IR (HT1080; compound 578 2.1 μM + IR): 0.9 Gy; EC50 IR (OE19; compound 578 0.7 μM + IR): 0.5 Gy; EC50 IR (OE19; compound 578 2.1 μM + IR): <0.5 Gy; EC50 IR (Huh7; compound 578 0.7 μM + IR): 1.3 Gy; EC50 IR (Huh7; compound 578 2.1 μM + IR): 0.8 Gy; EC50 IR (DLD-1; compound 578 0.7 μM + IR): 0.6 Gy; EC50 IR (DLD-1; compound 578 2.1 μM + IR): 0.7 Gy; % T/C (tumor growth inhibition) ([2]; 25 mg/kg b.i.d. oral + 2 Gy whole body IR): 25.6%; % T/C (tumor growth inhibition) ([2]; 50 mg/kg b.i.d. oral + 2 Gy whole body IR): 11.7%; % T/Ti (regression) ([2]; 100 mg/kg b.i.d. oral + 2 Gy whole body IR, P<0.001 compared to IR alone): −3.1%; % T/C (tumor growth inhibition) ([2]; 200 mg/kg q.d. oral + 2 Gy whole body IR): 6.5%; EC50 IR (H460; compound 578 0.7 μM + IR): 0.9 Gy; EC50 IR (H460; compound 578 2.1 μM + IR): 0.7 Gy; EC50 IR (A172; compound 578 0.7 μM + IR): 1.7 Gy; EC50 IR (A172; compound 578 2.1 μM + IR): 0.9 Gy; EC50 IR (LS411N; compound 578 0.7 μM + IR): 2.3 Gy; EC50 IR (LS411N; compound 578 2.1 μM + IR): 1.9 Gy; EC50 IR (SNU449; compound 578 0.7 μM + IR): 3.3 Gy; EC50 IR (SNU449; compound 578 2.1 μM + IR): 1.8 Gy; EC50 IR (DU4475; compound 578 0.7 μM + IR): <0.5 Gy; EC50 IR (DU4475; compound 578 2.1 μM + IR): <0.5 Gy; radiosensitization (glioblastoma cell lines): less radiosensitization; EC50 IR (U87MG; compound 578 0.7 μM + IR): >16 Gy; EC50 IR (U87MG; compound 578 2.1 μM + IR): >16 Gy; EC50 IR (PATU8889T; compound 578 0.7 μM + IR): 1.1 Gy; EC50 IR (PATU8889T; compound 578 2.1 μM + IR): 0.9 Gy; EC50 IR (DBTRG-05MG; compound 578 0.7 μM + IR): 4.2 Gy; EC50 IR (DBTRG-05MG; compound 578 2.1 μM + IR): 5 Gy; EC50 IR (H838; compound 578 0.7 μM + IR): 0.6 Gy; EC50 IR (H838; compound 578 2.1 μM + IR): <0.5 Gy; EC50 IR (A549; compound 578 0.7 μM + IR): 0.5 Gy; EC50 IR (A549; compound 578 2.1 μM + IR): <0.5 Gy; EC50 IR (Miapaca2; compound 578 0.7 μM + IR): 2.4 Gy; EC50 IR (Miapaca2; compound 578 2.1 μM + IR): 1.9 Gy; EC50 IR (SMCC7721; compound 578 0.7 μM + IR): 1.7 Gy; EC50 IR (SMCC7721; compound 578 2.1 μM + IR): 0.6 Gy; EC50 IR (H2009; compound 578 0.7 μM + IR): 2.7 Gy; EC50 IR (H2009; compound 578 2.1 μM + IR): 1.5 Gy
